Laboratory results as given in patent US20250136617A1 (The Regents of the University of Colorado, A Body Corporate, priority 2022, published 2025).
Entries after “also recorded” stand apart in the source; their conditions may differ. Where two headings read alike, the source gives them in different places.

Experiments:
CXCR4 = CXCR4 (Homo sapiens, UniProt P61073); experiment: β-arrestin recruitment, 384-well, Tango CXCR4-bla U2OS cells, normalized to SDF-1α; type: cell-based; parameters: host or cells: U2OS; settings: for EC50: normalized to SDF-1α, read-out: ß-arrestin recruitment EC50
Sequence of CXCR4 (P61073 whole entry): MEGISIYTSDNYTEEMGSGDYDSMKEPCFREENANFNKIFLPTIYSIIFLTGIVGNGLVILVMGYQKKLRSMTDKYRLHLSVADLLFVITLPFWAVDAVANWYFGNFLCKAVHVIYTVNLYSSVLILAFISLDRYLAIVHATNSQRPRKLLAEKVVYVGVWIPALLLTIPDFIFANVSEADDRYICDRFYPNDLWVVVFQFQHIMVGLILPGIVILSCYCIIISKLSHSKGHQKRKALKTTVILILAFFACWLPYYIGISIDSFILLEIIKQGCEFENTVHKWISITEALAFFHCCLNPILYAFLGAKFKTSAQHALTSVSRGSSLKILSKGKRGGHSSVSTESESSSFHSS
Method in brief: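 Tango CXCR4-bla U2OS cells plated in DMEM with 1% dialyzed FBS (FreeStyle 293 medium for thiadiazines), incubated overnight at 37 °C, then LiveBLAzer FRET B/G substrate added for 2 h in the dark. Fluorescence read; EC50 and Emax fitted with Hill slope 1.0, normalized to SDF-1α.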

[1] = test system: diabetic wounds in Db mice; experiment: Angiogenesis in diabetic wounds, CD31 immunohistochemistry at 7 days; type: in vivo
Description: The ability of compound UCUF-728 to improve diabetic wound healing in vivo was examined. Full-thickness excisional 8 mm wounds were created in Db mice and were immediately treated with 10 μM UCUF-728 or phosphate-buffered saline (PBS) control. Wound healing over the course of 22 days was monitored. Initial wound size was calculated immediately after wounding, and wound closure was assessed over time as the percentage of initial wound area. […] The effect of UCUF-728 treatment on angiogenesis was assessed using immunohistochemistry for endothelial marker CD31. Representative photos of immunoperoxidase staining for CD31 at 7 days in diabetic wounds treated with PBS or UCUF-728 are shown in FIG. 8A.
All animal experiments were approved by the Institutional Animal Care and Use Committee at the University of Colorado Denver—Anschutz Medical Campus, and experimental protocols followed the guidelines described in the NIH Guide for the Care and Use of Laboratory Animals. […] Mice pictures were taken every other day, wound size was analyzed by Image J. A full-thickness skin sample, centered on the wound, was harvested 3 and 7 days after surgery (n=5 per timepoint).
The effect of UCUF-965 treatment on angiogenesis was assessed using immunohistochemistry for the endothelial marker CD31. […] Quantification of the staining was obtained.

SMILES | β-arrestin recruitment activity (CXCR4) | Emax (CXCR4; U2OS, read-out: ß-arrestin recruitment Emax (%)) | EC50 (CXCR4) | number of vessels (CD31 staining) vs PBS ([1]; listed as UCUF-728) | β-arrestin recruitment activity (CXCR4; listed as UCUF-965) | number of vessels (CD31 staining) vs PBS ([1]; listed as UCUF-965)
COc1ccc(OC)c(NS(=O)(=O)c2ccc(-c3cnc(C4CC4)o3)cc2)c1 [Oxazole Entry 19, 4-(2-Cyclopropyloxazol-5-yl)-N-(2,5-dimethoxyphenyl)benzenesulfonamide] | dose-dependent partial activation of β-arrestin recruitment | 30% | 500 nM | significant increase in the number of vessels; also recorded: enhanced angiogenesis | – | –
CCOc1ccccc1-c1nnc2n1N=C(c1ccc(N3CCCC3)cc1)CS2 [Thiadiazine Entry 23, 3-(2-ethoxyphenyl)-6-(4-(pyrrolidin-1-yl)phenyl)-7H-[1,2,4]triazolo[3,4-b][1,3,4]thiadiazine] | – | – | 20 nM | – | dose-dependent partial activation of β-arrestin recruitment; also recorded: did not inhibit the action of SDF-1α | enhanced angiogenesis markers; also recorded: significantly increased the number of vessels
